Drawing on patent US10150766B2, “P2X7 modulators” (Jansssen Pharmaceutica NV, priority 2014, dated 2018), this text covers remaining activity and IC50 for 9 compounds.

The term IC50 denotes the point on the concentration scale where inhibition reaches its midpoint.

Assay [1] deals with P2X7 (Homo sapiens (Human), UniProt Q99572). Briefly: P2X7 antagonism in human peripheral blood mononuclear cells (PBMCs), IL-1β release (LPS + Bz-ATP, ELISA). In kind it is cell-based. To be noted: P2X7, 10 μM test compound, LPS 30 ng/ml + Bz-ATP 0.5 mM, read-out: PBMC @10 μM (% control). Here is the method: P2X7 Antagonism in Human Peripheral Blood Mononuclear Cells (PBMCs) and Human Whole Blood.
Sequence of P2X7 (Q99572 whole entry): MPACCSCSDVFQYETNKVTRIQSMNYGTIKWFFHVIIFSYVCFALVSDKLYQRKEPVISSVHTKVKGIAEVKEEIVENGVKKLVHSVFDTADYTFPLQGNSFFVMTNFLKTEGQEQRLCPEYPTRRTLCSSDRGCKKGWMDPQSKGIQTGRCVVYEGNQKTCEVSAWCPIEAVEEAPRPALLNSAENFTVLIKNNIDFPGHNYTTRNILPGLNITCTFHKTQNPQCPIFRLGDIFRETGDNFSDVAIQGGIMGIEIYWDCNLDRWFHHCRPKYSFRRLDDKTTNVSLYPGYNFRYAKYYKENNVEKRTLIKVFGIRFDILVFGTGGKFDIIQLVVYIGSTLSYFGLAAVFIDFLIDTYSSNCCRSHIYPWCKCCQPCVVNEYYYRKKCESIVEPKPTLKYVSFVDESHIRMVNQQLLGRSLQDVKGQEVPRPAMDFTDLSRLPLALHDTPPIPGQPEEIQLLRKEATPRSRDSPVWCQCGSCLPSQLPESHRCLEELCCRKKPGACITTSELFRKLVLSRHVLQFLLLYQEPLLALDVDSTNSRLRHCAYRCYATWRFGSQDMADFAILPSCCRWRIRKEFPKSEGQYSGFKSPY
Human blood was collected using a blood donor program. PBMCs were isolated from blood using a Ficoll density gradient technique. Briefly, blood was laid on Ficoll solution and centrifuged at ROOM TEMPERATURE for 20 minutes at 2000 rpm. The buffy layer (between red blood cells and plasma) was carefully collected by aspiration, washed with PBS and centrifuged again at 1500 rpm for 15 minutes. The resulting cell pellet was washed and plated on 96 well-plates for experiments. For the Human Whole Blood experiments, 150 μl of human blood was plated on 96 well-plates. Lipopolysaccharide (LPS) (30 ng/ml) was added to each well and incubated for 1 hour. Test compounds were then added and incubated for 30 minutes. The P2X7 agonist, 2′(3′)-O-(4-benzoylbenzoyl) adenosine 5′-triphosphate (Bz-ATP) was then added at a final concentration of 0.5 mM (PBMC) or 1 mM (blood). Cells were incubated for an additional 1.5 hours. At that point, supernatant was collected and stored for IL-1β assay using manufacturer's protocol for enzyme-linked immunosorbant assay (ELISA). Data was expressed as percent control, where control is defined as the difference in IL-1β release in LPS+Bz-ATP samples and LPS only samples. Data was plotted as response (% control) versus concentration to generate IC50 values. […] Data are analyzed and graphed on Graphpad Prism 5. For analysis, each concentration point is averaged from triplicate values and the averaged values are plotted on Graphpad Prism. The IC50 for each compound is then uploaded into 3DX.
In general terms: An ELISA detects its analyte on a solid surface through an enzyme-linked reagent.

The target of assay [2] is rat P2X7 (Rattus norvegicus (Rat), UniProt Q64663). Kind of assay: P2X7 antagonism in recombinant rat P2X7 cells (column headed P2X7 Rat IC50). The assay is classed as binding. How it is done: The in vitro affinity of the compounds of the invention for the rat and human P2X7 receptor was determined using a human peripheral blood mononuclear cells (PBMCs), a human whole blood assay, a Ca^2+ flux and radioligand binding assay in recombinant human P2X7 cells and recombinant rat P2X7 cells. […] The data represented in Tables 2 may represent a value from a single determination or when the experiment was run more than once, the data represents the average from between 2-12 runs.
Sequence of rat P2X7 (Q64663 whole entry): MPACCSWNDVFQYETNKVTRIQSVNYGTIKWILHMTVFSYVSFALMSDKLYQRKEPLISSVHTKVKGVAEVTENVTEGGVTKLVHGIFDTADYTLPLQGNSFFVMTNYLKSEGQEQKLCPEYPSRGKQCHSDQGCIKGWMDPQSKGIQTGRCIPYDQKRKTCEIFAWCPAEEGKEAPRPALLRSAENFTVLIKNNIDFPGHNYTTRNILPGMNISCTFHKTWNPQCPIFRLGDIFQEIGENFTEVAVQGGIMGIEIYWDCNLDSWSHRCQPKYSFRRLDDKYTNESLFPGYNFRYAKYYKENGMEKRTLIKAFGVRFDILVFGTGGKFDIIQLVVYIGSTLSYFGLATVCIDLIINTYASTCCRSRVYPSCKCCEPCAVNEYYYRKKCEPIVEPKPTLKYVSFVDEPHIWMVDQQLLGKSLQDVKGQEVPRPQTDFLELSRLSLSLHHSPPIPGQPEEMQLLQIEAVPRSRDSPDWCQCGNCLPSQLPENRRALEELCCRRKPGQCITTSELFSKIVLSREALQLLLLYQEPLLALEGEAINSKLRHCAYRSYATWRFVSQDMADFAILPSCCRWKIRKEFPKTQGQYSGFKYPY
P2X7 Antagonism in Recombinant Human P2X7 Cells or Recombinant Rat P2X7 Cells: […]

Where only a bound is given, the exact number is not on record here.

For the compound `Cc1nc(-c2ccn[nH]2)c2c(n1)C1CCCC(C2)N1C(=O)c1cccc(C(F)(F)F)c1Cl` (stereo not drawn) [Example 2, (2-chloro-3-(trifluoromethyl)phenyl)(2-methyl-4-(1H-pyrazol-5-yl)-5,6,7,8,9,10-hexahydro-6,10-epiminocycloocta[d]pyrimidin-11-yl)methanone], the remaining activity at 10 µM in assay [1] came to 1.1%. Consider `Cc1nc(-c2ccn[nH]2)c2c(n1)[C@@H]1CCC[C@H](C2)N1C(=O)c1cccc(C(F)(F)F)c1Cl` [Example 3, (2-chloro-3-(trifluoromethyl)phenyl)((6R,10S)-2-methyl-4-(1H-pyrazol-5-yl)-5,6,7,8,9,10-hexahydro-6,10-epiminocycloocta[d]pyrimidin-11-yl)methanone], for which the IC50 in assay [2] worked out at 811 nM. Further, the remaining activity at 10 µM in assay [1] was 22%. On the same counts, the results for `Cc1nc(-c2ccn[nH]2)c2c(n1)[C@@H]1CCC[C@H](C2)N1C(=O)c1cccc(C(F)(F)F)c1F` [Example 8, (2-fluoro-3-(trifluoromethyl)phenyl)((6R,10S)-2-methyl-4-(1H-pyrazol-5-yl)-5,6,7,8,9,10-hexahydro-6,10-epiminocycloocta[d]pyrimidin-11-yl)methanone] are 601 nM and 31.9%. On the same counts, the results for `Cc1nc(-c2ccc(F)cc2)c2c(n1)[C@@H]1CCC[C@H](C2)N1C(=O)c1ccnc(C(F)(F)F)c1Cl` [Example 18, (3-chloro-2-(trifluoromethyl)pyridin-4-yl)((6R,10S)-4-(4-fluorophenyl)-2-methyl-5,6,7,8,9,10-hexahydro-6,10-epiminocycloocta[d]pyrimidin-11-yl)methanone] are more than 10000 nM and 28.9%. On the same counts, the results for `Cc1nc(-c2ccn[nH]2)c2c(n1)[C@H]1CCC[C@@H](C2)N1C(=O)c1cccc(C(F)(F)F)c1Cl` [Example 19, (2-chloro-3-(trifluoromethyl)phenyl)((6S,10R)-2-methyl-4-(1H-pyrazol-5-yl)-5,6,7,8,9,10-hexahydro-6,10-epiminocycloocta[d]pyrimidin-11-yl)methanone] are 12.2 nM and -3%. Consider `Cc1nc(-c2ccn[nH]2)c2c(n1)[C@H]1CCC[C@@H](C2)N1C(=O)c1cccc(C(F)(F)F)c1F` [Example 26, (2-fluoro-3-(trifluoromethyl)phenyl)((6S,10R)-2-methyl-4-(1H-pyrazol-5-yl)-5,6,7,8,9,10-hexahydro-6,10-epiminocycloocta[d]pyrimidin-11-yl)methanone], for which the IC50 in assay [2] turned out to be 41.4 nM. For the same compound, in assay [1], the remaining activity at 10 µM is -3.8%. As to `Cc1nc(-c2cnn(C)c2)c2c(n1)[C@H]1CCC[C@@H](C2)N1C(=O)c1cccc(C(F)(F)F)c1Cl` [Example 30, (2-chloro-3-(trifluoromethyl)phenyl)((6S,10R)-2-methyl-4-(1-methyl-1H-pyrazol-4-yl)-5,6,7,8,9,10-hexahydro-6,10-epiminocycloocta[d]pyrimidin-11-yl)methanone], in assay [2], the half-maximal inhibitory concentration (IC50) is more than 10000 nM. For the same compound, in assay [1], the remaining activity at 10 µM was -3.7%. Consider `Cc1nc(-c2cnn(C)c2)c2c(n1)[C@H]1CCC[C@@H](C2)N1C(=O)c1ccc(F)cc1Cl` [Example 36, (2-chloro-4-fluorophenyl)((6S,10R)-2-methyl-4-(1-methyl-1H-pyrazol-4-yl)-5,6,7,8,9,10-hexahydro-6,10-epiminocycloocta[d]pyrimidin-11-yl)methanone], for which, in assay [1], the remaining activity at 10 µM amounted to 73.8%. On the same count and under the same terms, in the case of `Cc1nc(-c2cnn(C)c2)c2c(n1)[C@H]1CCC[C@@H](C2)N1C(=O)c1ccc(Cl)cc1Cl` [Example 40, (2,4-dichlorophenyl)((6S,10R)-2-methyl-4-(1-methyl-1H-pyrazol-4-yl)-5,6,7,8,9,10-hexahydro-6,10-epiminocycloocta[d]pyrimidin-11-yl)methanone] it was 76.2%.
